Measurements as given in PMC6681021 (Pharmaceutics, 2019).
Several values for one entry are separate records, joined by “and”; a condition that tells them apart may be missing. Equal values may be shown once. Read-outs that look alike come from different tables or passages of the source.

Experiments:
[1] = Human pharmacokinetics of tofacitinib (literature); assay type: in vivo; details: humans; 100–74%
[2] = cited from earlier work
[3] = Gastric and intestinal first-pass effect: intraportal infusion, intraduodenal and intragastric instillation in rats; assay type: in vivo, Sprague-Dawley rats
Protocol: Rats were fasted overnight with free access to water. Cannulae were inserted into the carotid artery and the cecal vein [13, 14]. […] All sample collection and processing procedures were identical to those described above.
(§1) Pharmacokinetic parameters, including AUC, apparent volume of distribution at steady state (Vss), mean residence time (MRT), and time-averaged total body (CL), renal (CLR), and nonrenal (CLNR) clearances, were calculated by noncompartmental analysis (WinNonlin, Pharsight Corporation, Mountain View, CA, USA) using standard methods. AUC values were calculated using the trapezoidal rule–extrapolation method. The peak plasma concentration (Cmax) and time to reach Cmax (Tmax) were obtained directly from the experimental data. The mean values of clearance, terminal half-life, and Vss were calculated using the harmonic mean method.

[4] = Pharmacokinetics after 1-min intravenous infusion of tofacitinib to rats; assay type: in vivo, Sprague-Dawley rats; details: for clearance / CL renal / MRT / half-life / Vd: Sprague-Dawley; for clearance / CL renal / MRT / half-life / Vd / AUC: rat; for Dose-normalized AUC: normalized to 10 mg/kg; for half-life: read-out: Terminal half-life; for Vd: read-out: Vss; for AUC: 1-min iv infusion, male Sprague-Dawley rats
Protocol: The pretreatment and surgical procedures for oral and intravenous administration were similar to those described previously. For oral administration, the rats were fasted overnight with free access to water. The rats were anesthetized with ketamine (200 mg/kg), and their carotid arteries were cannulated using polyethylene tubing (Clay Adams, Parsippany, NJ, USA) for blood sampling. For intravenous administration, the rats were anesthetized with ketamine (200 mg/kg), and their jugular veins and carotid arteries were cannulated for drug administration and blood sampling, respectively. Rats were allowed to recover for 4–5 h after surgical procedures. The rats were not restrained during the experimental period and had free access to water and food.
Blood samples (110–220 μL) were collected via the carotid artery at times 0 (prior to drug administration), 1 (at the end of drug infusion), 5, 15, 30, 45, 60, 90, 120, 180, 240, 360, 480, and 600 min. […] To prevent blood clotting, 0.3 mL of heparinized 0.9% NaCl-injectable solution (20 IU/mL) was immediately injected into the carotid artery after each blood sampling. Urine samples were collected over 24 h; in addition, each metabolic cage was rinsed with 20 mL of distilled water 24 h after drug administration, and the rinses were combined with their corresponding 24-h urine samples. […] At 24-h, each rat was exsanguinated, followed by cervical dislocation. The abdomen of each rat was opened and the entire gastrointestinal tract, including its contents and feces, was removed, transferred to a beaker containing 50 mL methanol, and cut into small pieces using scissors.
Two microliters of hydrocortisone (5 mg/mL) and 40 μL of 20% ammonia solution were added to 100 μL aliquots of biological samples and vortex-mixed for 30 s using a vortex mixer. Each solution was extracted with 1.5 mL of ethyl acetate by centrifugation at 12,000 rpm for 5 min. The organic layer was collected and dried (Dry Thermobath, Eyela, Tokyo, Japan) under a gentle stream of nitrogen gas at 40 °C. The samples were reconstituted in 130 μL of 20% acetonitrile, and 50 μL of resuspended samples were analyzed by HPLC [12].
The mobile phase consisted of a 69.5:30.5 (v/v) mixture of 10 mM ammonium acetate buffer (pH 5.0) and acetonitrile, respectively, with a flow rate of 1.0 mL/min. Column effluent was monitored by a UV detector at 287 nm.
as §1

[5] = Biliary excretion after intravenous infusion in rats; assay type: in vivo, Sprague-Dawley rats; details: 1-min iv infusion 10 mg/kg, 0–24 h bile, n = 3
Protocol: The jugular vein of each rat was cannulated. The abdomen was opened and the bile duct was cannulated with polyethylene tubing. The incision was closed with surgical sutures and each rat was kept warm under an electric light. Each rat was maintained in the supine position during the entire experiment. […] Bile samples were collected over various time periods, from 0–1, 1–2, 2–4, 4–6, and 6–24 h.

[6] = Tissue distribution after intravenous administration in rats; assay type: in vivo; details: Sprague-Dawley, rat; every tissue except brain, mesentery and fat; 30 min and 2 h after iv 10 mg/kg; read-out: Tissue-to-plasma (T/P) ratio
Protocol: Rats were handled and processed as described previously [10]. […] After 30 min and 2 h (n = 4 each), as much blood as possible was collected from the carotid artery. Blood samples were immediately centrifuged, and plasma was collected. The rats were sacrificed by cervical dislocation, approximately 1 g of each brain, fat, heart, kidney, large intestine, liver, lung, mesentery, muscle, small intestine, spleen, and stomach was removed, rinsed with phosphate-buffered solution (pH 7.4), and blotted dry with paper towels to remove any remaining blood. Each tissue sample was added to four volumes of homogenizing buffer, homogenized using a tissue homogenizer (T25 Ultra-Turrax, IKA Labortechnik, Staufen, Germany) and centrifuged at 8000 × g for 10 min.

[7] = 30-min intraportal infusion, 10 mg/kg (n = 6)
[8] = Sprague-Dawley, rat, plasma, 10 mg/kg, 30-min intraportal infusion, 10 mg/kg (n = 6)
[9] = Sprague-Dawley, rat, plasma, 10 mg/kg, intraduodenal instillation
[10] = Sprague-Dawley, rat, plasma, po, 10 mg/kg, intragastric instillation
[11] = Sprague-Dawley, rat, plasma, 30-min intraportal infusion, 10 mg/kg (n = 6)

**Q.** For `C[C@@H]1CCN(C(=O)CC#N)C[C@@H]1N(C)c1ncnc2[nH]ccc12` [tofacitinib, 3-[(3R,4R)-4-methyl-3-[methyl-(7H-pyrrolo[2,3-day]pyrimidin-4-l)amino]piperidin-1-yl]-3-oxopropanenitril], which “Oral dose presumed first-pass metabolized in the intestine and the liver” value [1] is on record?
**A.** 26%

**Q.** What about the “AUC of tofacitinib reduced in pretreated rats” value ([2]; pretreated with dexamethasone, inducer of CYP3A1/2) of the same molecule?
**A.** 56%

**Q.** What about the “AUC of tofacitinib greater in pretreated rats” value ([2]; pretreated with fluconazole, inhibitor of CYP2C11) of the same molecule?
**A.** 39%

**Q.** And the “AUC of tofacitinib greater in pretreated rats” value ([2]; pretreated with ketoconazole, inhibitor of CYP3A1/2)?
**A.** 46%

**Q.** What about the “AUC of tofacitinib reduced in pretreated rats” value ([2]; pretreated with rifampin, inducer of CYP2C11) of the same molecule?
**A.** 26%

**Q.** And the “AUC after intraduodenal instillation as % of that after intraportal administration” value ([3]; 10 mg/kg)?
**A.** 50.7%

**Q.** What about the “Ae0–24 h” value [3, 7] of the same molecule?
**A.** 5.82 ± 2.32 % of dose

**Q.** What about the CLNR [3, 7] of the same molecule?
**A.** 38.3 ± 6.16 mL/min/kg

**Q.** What about the “Oral dose absorbed into the systemic circulation” value ([3]; 50.7–21.3%, 10 mg/kg) of the same molecule?
**A.** 29.4%

**Q.** What about the CL renal [3, 8] of the same molecule?
**A.** 2.44 ± 1.23 mL/min/kg

**Q.** What about the Cmax [3, 8] of the same molecule?
**A.** 5180 ± 586 ng/mL

**Q.** What about the Tmax [3, 8] of the same molecule?
**A.** 27.5 min

**Q.** And the AUC ([3]; Sprague-Dawley, rat, plasma, 10 mg/kg, 30-min intraportal infusion, 10 mg/kg (n = 6), fasted)?
**A.** 4530 ng·h/mL

**Q.** And the AUC [3, 9]?
**A.** 2300 ng·h/mL

**Q.** And the CL renal [3, 9]?
**A.** 5.72 ± 2.62 mL/min/kg

**Q.** And the Cmax [3, 9]?
**A.** 1550 ± 1930 ng/mL

**Q.** What about the Tmax [3, 9] of the same molecule?
**A.** 38.8 min

**Q.** And the AUC [3, 10]?
**A.** 2230 ng·h/mL

**Q.** What about the CL renal [3, 10] of the same molecule?
**A.** 7.08 ± 2.91 mL/min/kg

**Q.** And the Cmax [3, 10]?
**A.** 716 ± 255 ng/mL

**Q.** And the Tmax [3, 10]?
**A.** 63.8 min

**Q.** And the MRT [3, 11]?
**A.** 53 min

**Q.** And the clearance [3, 11]?
**A.** 38.4 ± 8.47 mL/min/kg

**Q.** And the half-life ([3]; Sprague-Dawley, rat, plasma, 30-min intraportal infusion, 10 mg/kg (n = 6), read-out: Terminal half-life)?
**A.** 44.8 ± 14.2 min

**Q.** And the Vd ([3]; Sprague-Dawley, rat, plasma, 30-min intraportal infusion, 10 mg/kg (n = 6), read-out: Vss)?
**A.** 1.9 ± 0.369 L/kg

**Q.** And the “Ae0–24 h” value ([3]; intraduodenal instillation, 10 mg/kg)?
**A.** 8.30 ± 5.10 % of dose

**Q.** What about the “Ae0–24 h” value ([3]; intragastric instillation, 10 mg/kg) of the same molecule?
**A.** 8.90 ± 3.00 % of dose

**Q.** What about the clearance ([4]; plasma, iv 50 mg/kg) of the same molecule?
**A.** 14.5 ± 2.33 mL/min/kg

**Q.** What about the “Ae0–24 h” value ([4]; all intravenous doses) of the same molecule?
**A.** less than 11.0%

**Q.** What about the “Slope of plot of AUC versus dose” value ([4]; intravenous, dose and AUC ratios based on 5 mg/kg) of the same molecule?
**A.** 2.74

**Q.** And the “CLR slower at 50 mg/kg than at 5 mg/kg” value ([4]; iv)?
**A.** 69%

**Q.** And the “CLR slower at 50 mg/kg than at 10 mg/kg” value ([4]; iv)?
**A.** 71%

**Q.** And the “CLR slower at 50 mg/kg than at 20 mg/kg” value ([4]; iv)?
**A.** 71%

**Q.** What about the “Ae0–24 h (excreted unchanged in 24-h urine)” value ([4]; iv 5 mg/kg) of the same molecule?
**A.** 7.62 ± 5.08 % of dose

**Q.** And the CLNR ([4]; iv 5 mg/kg)?
**A.** 32.9 ± 7.72 mL/min/kg

**Q.** And the “Dose-normalized AUC” value ([4]; iv 5 mg/kg)?
**A.** 282 µg·min/mL and 282 ± 46.0 µg·min/mL

**Q.** What about the “Ae0–24 h (excreted unchanged in 24-h urine)” value ([4]; iv 10 mg/kg) of the same molecule?
**A.** 9.40 ± 5.06 % of dose

**Q.** And the CLNR ([4]; iv 10 mg/kg)?
**A.** 26.3 ± 2.16 mL/min/kg

**Q.** What about the “Dose-normalized AUC” value ([4]; iv 10 mg/kg) of the same molecule?
**A.** 342 µg·min/mL and 342 ± 33.1 µg·min/mL

**Q.** And the “Ae0–24 h (excreted unchanged in 24-h urine)” value ([4]; iv 20 mg/kg)?
**A.** 11.0 ± 3.72 % of dose

**Q.** What about the CLNR ([4]; iv 20 mg/kg) of the same molecule?
**A.** 22.6 ± 3.90 mL/min/kg

**Q.** What about the “Dose-normalized AUC” value ([4]; iv 20 mg/kg) of the same molecule?
**A.** 404 µg·min/mL and 404 ± 73.0 µg·min/mL

**Q.** What about the “Ae0–24 h (excreted unchanged in 24-h urine)” value ([4]; iv 50 mg/kg) of the same molecule?
**A.** 5.55 ± 3.91 % of dose

**Q.** What about the CLNR ([4]; iv 50 mg/kg) of the same molecule?
**A.** 13.7 ± 2.12 mL/min/kg

**Q.** What about the “Dose-normalized AUC” value ([4]; iv 50 mg/kg) of the same molecule?
**A.** 705 µg·min/mL and 705 ± 114 µg·min/mL

**Q.** What about the CL renal ([4]; male, plasma, iv 5 mg/kg) of the same molecule?
**A.** 2.69 ± 1.7 mL/min/kg

**Q.** And the MRT ([4]; male, plasma, iv 5 mg/kg)?
**A.** 35.2 min

**Q.** And the clearance ([4]; male, plasma, iv 5 mg/kg)?
**A.** 36.3 ± 6.02 mL/min/kg

**Q.** And the half-life ([4]; male, plasma, iv 5 mg/kg)?
**A.** 38.2 ± 11.7 min

**Q.** And the Vd ([4]; male, plasma, iv 5 mg/kg)?
**A.** 1.26 ± 0.46 L/kg

**Q.** And the CL renal ([4]; male, plasma, iv 10 mg/kg)?
**A.** 2.8 ± 1.69 mL/min/kg

**Q.** And the MRT ([4]; male, plasma, iv 10 mg/kg)?
**A.** 41.1 min

**Q.** What about the clearance ([4]; male, plasma, iv 10 mg/kg) of the same molecule?
**A.** 29.5 ± 2.99 mL/min/kg

**Q.** What about the half-life ([4]; male, plasma, iv 10 mg/kg) of the same molecule?
**A.** 41.6 ± 7.86 min

**Q.** What about the Vd ([4]; male, plasma, iv 10 mg/kg) of the same molecule?
**A.** 1.21 ± 0.579 L/kg

**Q.** And the CL renal ([4]; male, plasma, iv 20 mg/kg)?
**A.** 2.8 ± 1.17 mL/min/kg

**Q.** And the MRT ([4]; male, plasma, iv 20 mg/kg)?
**A.** 35.5 min

**Q.** What about the clearance ([4]; male, plasma, iv 20 mg/kg) of the same molecule?
**A.** 25.4 ± 4.26 mL/min/kg

**Q.** What about the half-life ([4]; male, plasma, iv 20 mg/kg) of the same molecule?
**A.** 48.1 ± 5.56 min

**Q.** And the Vd ([4]; male, plasma, iv 20 mg/kg)?
**A.** 0.9 ± 0.218 L/kg

**Q.** And the CL renal ([4]; male, plasma, iv 50 mg/kg)?
**A.** 0.824 ± 0.651 mL/min/kg

**Q.** And the MRT ([4]; male, plasma, iv 50 mg/kg)?
**A.** 105 min

**Q.** What about the half-life ([4]; male, plasma, iv 50 mg/kg) of the same molecule?
**A.** 97.8 ± 19.2 min

**Q.** What about the Vd ([4]; male, plasma, iv 50 mg/kg) of the same molecule?
**A.** 1.49 ± 0.134 L/kg

**Q.** And the clearance ([4]; male, range over intravenous doses, based on plasma data)?
**A.** 14.5 to 36.3 mL/min/kg

**Q.** And the AUC ([4]; plasma, 5 mg/kg)?
**A.** 2350 ng·h/mL

**Q.** And the AUC ([4]; plasma, 10 mg/kg)?
**A.** 5700 ng·h/mL

**Q.** What about the AUC ([4]; plasma, 20 mg/kg) of the same molecule?
**A.** 13500 ng·h/mL

**Q.** And the AUC ([4]; plasma, 50 mg/kg)?
**A.** 58800 ng·h/mL

**Q.** And the Excreted in bile [5]?
**A.** 0.703 ± 0.303 % of the intravenous dose

**Q.** What about the Kp [6] of the same molecule?
**A.** > 1
